According to ChEMBL document CHEMBL2303647, “Data associated with the publication PLoS ONE, 8(3), e57888, (2013) PMID: 23505445. Compounds: GSK PKIS; Assays: NIH NCATS”:

How the values were obtained:
[1] = molecular target: Luciferin 4-monooxygenase (Photinus pyralis, UniProt P08659)
Description: GSK_PKIS: Inhibition of Firefly Luciferase (Data from PubChem: AID 652016) [NIH NCATS]

[2] = molecular target: T1, Coelenterazine h 2-monooxygenase (Renilla reniformis, UniProt P27652)
T1 sequence (P27652 whole entry): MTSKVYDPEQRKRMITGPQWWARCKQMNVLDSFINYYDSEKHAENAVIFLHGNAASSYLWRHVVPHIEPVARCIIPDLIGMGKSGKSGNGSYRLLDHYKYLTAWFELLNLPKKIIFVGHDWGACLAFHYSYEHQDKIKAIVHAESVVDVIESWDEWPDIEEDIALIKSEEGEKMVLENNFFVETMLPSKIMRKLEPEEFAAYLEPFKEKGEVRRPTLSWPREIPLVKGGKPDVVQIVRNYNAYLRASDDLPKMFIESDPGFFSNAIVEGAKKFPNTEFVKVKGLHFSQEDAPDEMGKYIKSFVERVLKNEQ
Description: GSK_PKIS: Inhibition of Sea Pansy Luciferase (Data from PubChem: AID 652015) [NIH NCATS]

Luciferin 4-monooxygenase, sequence (P08659 whole entry): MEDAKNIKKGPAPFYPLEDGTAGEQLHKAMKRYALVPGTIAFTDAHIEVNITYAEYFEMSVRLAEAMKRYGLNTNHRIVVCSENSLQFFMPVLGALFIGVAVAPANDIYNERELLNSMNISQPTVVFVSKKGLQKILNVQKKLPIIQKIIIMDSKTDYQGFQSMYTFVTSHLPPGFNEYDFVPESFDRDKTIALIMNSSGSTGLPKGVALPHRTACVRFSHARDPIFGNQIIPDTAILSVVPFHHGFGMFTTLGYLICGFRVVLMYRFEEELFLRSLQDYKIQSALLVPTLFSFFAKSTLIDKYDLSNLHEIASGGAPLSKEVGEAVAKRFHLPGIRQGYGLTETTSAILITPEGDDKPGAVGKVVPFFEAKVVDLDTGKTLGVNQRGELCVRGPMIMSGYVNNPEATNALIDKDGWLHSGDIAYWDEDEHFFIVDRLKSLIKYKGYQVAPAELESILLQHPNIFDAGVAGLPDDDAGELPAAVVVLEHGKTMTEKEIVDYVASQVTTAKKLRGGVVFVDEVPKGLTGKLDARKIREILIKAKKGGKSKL

SMILES | AC50 [1] | AC50 ([2]; read-out: AC50) | AC50 ([1]; read-out: AC50) | AC50 [2]
NS(=O)(=O)c1ccc(Nc2cc(-c3ccc(O)c(F)c3)n[nH]2)cc1 [GW831091X] | Phenotype: Inactive; Curve_Description: None | 36.6 µM |  | 
COC(=O)Nc1nc2cc(Oc3ccc(NC(=O)Nc4ccccc4)cc3)ccc2[nH]1.Cl [GW694590A] |  |  | 14.6 µM | Phenotype: Inactive; Curve_Description: None
COC(=O)Nc1nc2cc(Oc3ccc(NC(=O)Nc4cccc(Br)c4)cc3)ccc2[nH]1.Cl [GW694234A] | Phenotype: Inactive; Curve_Description: None |  |  | Phenotype: Inactive; Curve_Description: None
Cn1c(-c2nonc2N)nc2cnccc21 | Phenotype: Inactive; Curve_Description: None |  |  | Phenotype: Inactive; Curve_Description: None
COc1ccc(-c2nn3ncccc3c2-c2ccnc(Nc3cccc(C(F)(F)F)c3)n2)cc1 [GW827105X] | Phenotype: Inactive; Curve_Description: None |  |  | Phenotype: Inactive; Curve_Description: None
Cc1nnc(-c2ccc(C)c(-c3ccc(C(=O)Nc4cccc(C#N)c4)cc3)c2)o1 [GW607117X] |  |  | 41.1 µM | Phenotype: Inactive; Curve_Description: None
COc1cc2c(cc1Nc1nc(N3CCc4ccccc43)c3cc[nH]c3n1)N(C(=O)CN(C)C)CC2 [GSK-2186269A] | Phenotype: Inactive; Curve_Description: None | 23.1 µM |  | 
Cl.Fc1cccc(COc2ccc(Nc3ncnc4cc(-c5ccc[nH]5)sc34)cc2Cl)c1 [GW693881A] | Phenotype: Inactive; Curve_Description: None |  |  | Phenotype: Inactive; Curve_Description: None
Cc1cc(-c2ccccn2)cc(C)c1/C=C/c1cncc(-c2nn[nH]n2)c1.Cl [GW459057A] | Phenotype: Inactive; Curve_Description: None | 32.6 µM |  | 
c1ccc(-c2n[nH]cc2-c2ccnc(-c3ccc(OCCN4CCOCC4)cc3)c2)nc1 [GW695874X] | Phenotype: Inactive; Curve_Description: None |  |  | Phenotype: Inactive; Curve_Description: None
CCn1c(-c2nonc2N)nc2c(C#CC(C)(C)O)ncc(OC[C@@H]3CCCN3)c21.O=C(O)C(F)(F)F [GSK-614526A] | Phenotype: Inactive; Curve_Description: None | 18.3 µM |  | 
Cl.NCc1ccc(-c2nc(-c3ccc(Cl)c(O)c3)c(-c3ccncc3)[nH]2)cc1 | Phenotype: Inactive; Curve_Description: None |  |  | Phenotype: Inactive; Curve_Description: None
CCc1cccc(CC)c1/C=C/c1cncc(C(=O)NC)c1 [GW450241X] |  |  | 36.6 µM | Phenotype: Inactive; Curve_Description: None
N#Cc1c(NC(=O)c2ccccc2F)sc2c1CCCC2 [GW572738X] |  |  | 0.819 µM | Phenotype: Inactive; Curve_Description: None
O=C(Nc1n[nH]c2cc(-c3cc(F)ccc3F)ccc12)C1CC1 |  |  | 16.3 µM | Phenotype: Inactive; Curve_Description: None
Fc1ccc(-c2ncn(C3CCNCC3)c2-c2ccnc(Oc3ccccc3)n2)cc1 |  | 18.3 µM | 20.6 µM | 
COc1cccc(Nc2nccc(-c3cnn4ncccc34)n2)c1 [PYRAZOLOPYRIDAZINE 1] | Phenotype: Inactive; Curve_Description: None |  |  | Phenotype: Inactive; Curve_Description: None
COc1ccc(C2=C(N3CCc4ccccc43)C(=O)NC2=O)cc1 | Phenotype: Inactive; Curve_Description: None | 20.6 µM |  | 
CC(=O)Nc1cccc(C#Cc2cncnc2Nc2ccc(OCc3cccc(F)c3)c(Cl)c2)n1 [GW794726X] | Phenotype: Inactive; Curve_Description: None |  |  | Phenotype: Inactive; Curve_Description: None
NC(=O)c1cc(-c2ccncc2)cc(-c2ccccc2)c1N [GSK-625137A] |  |  | 41.1 µM | Phenotype: Inactive; Curve_Description: None
CC(C)COC(=O)c1ccc2c(c1)/C(=C/Nc1ccc(S(N)(=O)=O)cc1)C(=O)N2 [GW416981X] | Phenotype: Inactive; Curve_Description: None |  |  | Phenotype: Inactive; Curve_Description: None
CC(C)c1ccc(-c2cc(-c3c[nH]nc3-c3ccccn3)ccn2)cc1 [GW682841X] | Phenotype: Activator; Curve_Description: None | 1.46 µM |  | 
FC(F)(F)c1cccc(Nc2nccc(-c3cnn4nc(-c5ccccc5)ccc34)n2)c1 [GW819077X] | Phenotype: Inactive; Curve_Description: None |  |  | Phenotype: Inactive; Curve_Description: None
Cl.Nc1ncnc2occ(-c3ccc(NC(=O)Nc4cc(C(F)(F)F)ccc4F)cc3)c12 [GW770249A] | Phenotype: Inactive; Curve_Description: None |  |  | Phenotype: Inactive; Curve_Description: None
Cl.ON=C1CCc2cc(-c3nc(C4CCNCC4)[nH]c3-c3ccncc3)ccc21 | Phenotype: Inactive; Curve_Description: None |  |  | Phenotype: Inactive; Curve_Description: None
COc1cc2c(cc1Nc1nc(Nc3ccsc3C(N)=O)c3cc[nH]c3n1)N(C(=O)CN(C)C)CCC2(C)C [GSK-2163632A] | Phenotype: Inactive; Curve_Description: None |  |  | Phenotype: Inactive; Curve_Description: None

SMILES | AC50 [1] | AC50 ([2]; read-out: AC50) | AC50 ([1]; read-out: AC50) | AC50 [2]
CN(C)c1cc2c(Nc3ccc4c(cnn4Cc4ccccc4)c3)ncnc2cn1 [GW282974X] | Phenotype: Inactive; Curve_Description: None | 23.1 µM |  | 
Fc1ccc(-c2ncn(C3CCNCC3)c2-c2ccnc(Oc3ccc(F)c(F)c3)n2)cc1 | Phenotype: Inactive; Curve_Description: None |  |  | Phenotype: Inactive; Curve_Description: None
CS(=O)(=O)CCNCc1nc(-c2ccc3ncnc(Nc4ccc(F)c(Cl)c4)c3c2)cs1.Cl [GW461104A] | Phenotype: Inactive; Curve_Description: None |  |  | Phenotype: Inactive; Curve_Description: None
CNC(=O)c1cncc(/C=C/c2c(C)cccc2C)c1 [GW445012X] |  |  | 20.6 µM | Phenotype: Inactive; Curve_Description: None
Nc1nonc1-c1nc2cnccc2n1C1CC1 | Phenotype: Inactive; Curve_Description: None |  |  | Phenotype: Inactive; Curve_Description: None
Nc1nccc(-c2c(-c3ccc(F)cc3)ncn2C2CCC(O)CC2)n1 (configuration not stated) | Phenotype: Inactive; Curve_Description: None |  |  | Phenotype: Inactive; Curve_Description: None
O=C(Nc1n[nH]c2cc(-c3ccccc3)ccc12)C1CC1 |  |  | 18.3 µM | Phenotype: Inactive; Curve_Description: None
O=C(O)C(F)(F)F.O=C(O[C@H]1CN[C@H](C#Cc2cc3ncnc(Nc4ccc5c(ccn5Cc5cc(F)ccc5F)c4)c3s2)C1)N1CCOCC1 [GSK-259178A] | Phenotype: Inactive; Curve_Description: None |  |  | Phenotype: Inactive; Curve_Description: None
COC(=O)Nc1nc2cc(Oc3cccc(NC(=O)Nc4cc(C(F)(F)F)ccc4F)c3)ccc2[nH]1.Cl [GW659386A] |  |  | 16.3 µM | Phenotype: Inactive; Curve_Description: None
Nc1ccc(C#Cc2cncnc2Nc2ccc(OCc3cccc(F)c3)c(Cl)c2)cc1 [GW659893X] |  |  | 20.6 µM | Phenotype: Inactive; Curve_Description: None
CNC(=O)c1cncc(/C=C/c2c(Cl)cccc2Cl)c1 [GW445014X] |  | 23.1 µM | 16.3 µM | 
CN1CCC(n2cnc(-c3ccc(F)cc3)c2-c2ccnc(Nc3ccccc3)n2)CC1 | Phenotype: Inactive; Curve_Description: None |  |  | Phenotype: Inactive; Curve_Description: None
NC(=O)c1cccc(Nc2nccc(Nc3cccc4[nH]ncc34)n2)c1 [GW782612X] |  |  | 13 µM | Phenotype: Inactive; Curve_Description: None
c1ccc(COc2ccc(Nc3ncnc4ccc(-c5ccco5)cc34)cc2)cc1 [GW284372X] |  |  | 29.1 µM | Phenotype: Inactive; Curve_Description: None
Cc1ccc2c(c1)/C(=N/Nc1ccc(S(N)(=O)=O)cc1)C(=O)N2 [GW275944X] | Phenotype: Inactive; Curve_Description: None |  |  | Phenotype: Inactive; Curve_Description: None
COC(=O)Nc1nc2ccc(Oc3ccc(NC(=O)Nc4cccc(Cl)c4)cc3)cc2[nH]1.Cl [GW589961A] |  |  | 20.6 µM | Phenotype: Inactive; Curve_Description: None
CCS(=O)(=O)c1ccc(OC)c(Nc2ncc(-c3cccc(OC)c3)o2)c1 [GW580509X] | Phenotype: Inactive; Curve_Description: None | 18.3 µM |  | 
CC(C)c1ccc2c(c1)NC(=O)/C2=N/Nc1ccc(S(N)(=O)=O)cc1 [GW300653X] | Phenotype: Inactive; Curve_Description: None |  |  | Phenotype: Inactive; Curve_Description: None
O=C1Nc2ccc(C(=O)c3ccco3)cc2C1=Cc1cc(Cl)c(O)c(Cl)c1 [GW406108X] |  | 16.3 µM | 18.3 µM | 
CS(=O)(=O)CCNCc1ccc(-c2ccc3ncnc(Nc4ccc(OCc5cccc(F)c5)c(C(F)(F)F)c4)c3c2)o1 [GW576484X] | Phenotype: Inactive; Curve_Description: None |  |  | Phenotype: Inactive; Curve_Description: None
CN(C)CCCn1c(-c2nonc2N)nc2cnccc21 | Phenotype: Inactive; Curve_Description: None |  |  | Phenotype: Inactive; Curve_Description: None
CCn1c(-c2nonc2N)nc2cncc(C(=O)N3CCNCC3)c21.Cl | Phenotype: Inactive; Curve_Description: None |  |  | Phenotype: Activator; Curve_Description: None
COC(=O)c1cncc(/C=C/c2c(C)cc(O)cc2C)c1 [GW406731X] | Phenotype: Inactive; Curve_Description: None |  |  | Phenotype: Inactive; Curve_Description: None
COc1ccc(CNC(=O)c2ccc(-c3cc(-c4nnc(C)o4)ccc3C)cc2)cc1 [GW701032X] | Phenotype: Inactive; Curve_Description: None |  |  | Phenotype: Inactive; Curve_Description: None
O=C1NC(=O)C(c2ccccc2Cl)=C1Nc1cccc(O)c1 | Phenotype: Inactive; Curve_Description: None |  |  | Phenotype: Inactive; Curve_Description: None
